Consider one compound from patent publication US20210101881A1 (Ancureall Pharmaceutical (Shanghai) Co., Ltd., priority 2018, published 2021).

This series deals with human MOLM13 leukemia cells. Nature of the series: In vivo growth inhibition test of tumor cell (MOLM13 subcutaneous model). On the procedure: Test Example 4. In Vivo Growth Inhibition Test of Tumor Cell
Experimental animals: Bab/c immunodeficiency mice, female, 6 weeks old (weighing about 20 grams), purchased from Shanghai Sippr-BK laboratory animal Co. Ltd., raised by the Animal Center of Shanghai Fudan University, approved by the Ethics Committee of Shanghai Fudan University. The breeding environment is SPF level.
Test samples: Compound 140 of the present invention (purity: 99%), solid powder, stored at 4-8° C.
Cell and animal modelling: human MOLM13 leukemia cells were cultured in RPMI 1640 medium containing 10% fetal bovine serum. Cells in the exponential growth phase were collected (centrifuge at 1700 rpm for 3 minutes), washed once with 1×PBS, and resuspended to obtain a final concentration of 5×10^7/ml cells. Single-point inoculation of 0.1 ml was carried out subcutaneously on the right back.
When the average tumor volume reached ˜400 mm^3, the mice were randomly grouped according to tumor size. The test was divided into solvent control group and administration group, with 3 mice in each group. 0.01 ml of solution per gram of mouse weight was intragastrically administered (p.o.) once a day. The tumor was measured three times a week. Calculation formula for tumor volume: long diameter×short diameter^2/2. When the tumor volume of the control group reached 2000 mm^3, the experiment was ended, and molecular pathological analysis of tumor tissue was performed. The efficacy was evaluated based on the relative tumor growth inhibition rate (TGI), and the safety was evaluated based on the change of animal weight.
Formulation of test samples: An appropriate amount of compound 140 was weighed. An appropriate amount of ultrapure water was added and mixed well.
Methanesulfonic acid was then added to obtain a clear solution, and 4M NaOH was added dropwise to adjust pH to 4.3. Ultrapure water was added to obtain a constant volume and a final concentration of 5 mg/ml.
The solvent control group was an aqueous methanesulfonic acid solution (pH 4.3).
T/C % represents the relative tumor growth rate, that is, the percentage ratio of relative tumor volume or tumor weight of the administration group to that of the control group at a certain time point. T and C respectively represent the relative tumor volume (RTV) of the administration group and the control group at a certain time point. T/C % is calculated as follows:
wherein TRTV: the average RTV of the administration group; CRTV: the average RTV of the solvent control group: RTV=Vt/V0, V0 represents the tumor volume of the animal at the time of grouping, and Vt represents the tumor volume of the animal after administration.
Statistical analysis: All test results were expressed as mean tumor volume±SEM (mean standard error). The tumor volume data on Day 9 after the start of administration was selected for statistical analysis among different groups. The significant difference between the relative tumor volume of the administration group and that of the control group was determined by independent sample T test method. All data were analyzed with SPSS 18.0. p<0.05 means that there is a significant difference.

Setting [1] is: MOLM13 model, 50 mg/kg p.o. once a day, Day 9 after the start of administration.

Each structure is given as a SMILES string.

Consider `NC(=O)c1cn(-c2nc(Nc3cccc(N4CCN(C5CCOCC5)CC4)c3)ncc2F)c2ccccc12` [Compound 140, 1-(5-fluoro-2-{3-[4-(tetrahydro-pyran-4-yl)-piperazin-1-yl]-phenylamino}-pyrimidin-4-yl)-1H-indole-3-carboxamide], for which, under “50 mg/kg p.o. once a day”, the “tolerability of the drug” value is reported as “well tolerated” and the “weight of the mouse during the administration” value was “remained stable”. Also, under setting [1], the “TGI (%)” value was determined as 91.29% and the “TIC (%)” value was determined as 8.71%. Moreover, the “Tumor volume (mm^3)” value (MOLM13 model, 50 mg/kg p.o. once a day, Day 9 after the start of administration, mean ± SEM) was found to be 164.8 ± 12 mm^3. Further, the “growth of human acute myeloid leukemia MOLM13 cells in vivo” value (dose of 50 mg/kg) was “effectively inhibit the growth”.
